From patent US20230017045A1, “PYRIDINE AND PYRIMIDINE CARBOXYLATE HERBICIDES AND METHODS OF USE THEREOF” (Dow AgroSciences LLC, priority 2017, published 2023)
Where two headings read alike, the source gives them in different places.

Tested on: test plant species
Test: Post-emergent herbicidal activity test (greenhouse, foliar spray, visual growth reduction)
Format: in vivo
Settings: post-emergence, 336 h, 140 g ai/ha
Method: Post-emergent Test: Seeds or nutlets of the desired test plant species were planted in Sun Gro Metro-Mix® 360 planting mixture, which typically has a pH of 6.0 to 6.8 and an organic matter content of about 30 percent, in plastic pots with a surface area of 64 square centimeters. In some aspects, to ensure good germination and healthy plants, a fungicide treatment and/or other chemical or physical treatment was applied. The plants were grown for 7-21 d in a greenhouse with an approximate 15 h photoperiod which was maintained at 23-29° C. during the day and 22-28° C. during the night. Nutrients and water were added on a regular basis and supplemental lighting was provided with overhead metal halide 1000-Watt lamps as necessary. Plants were used for testing when they reached the first or second true leaf stage. A weighed amount, determined by the highest rate to be tested, of each test compound was placed in a 25 mL glass vial and was dissolved in 4 mL of a 97:3 v/v mixture of acetone and DMSO to obtain concentrated stock solutions. […] The concentrated stock solutions obtained were diluted with 20 mL of an aqueous mixture containing acetone, water, isopropyl alcohol, DMSO, […] crop oil concentrate, and X-77 surfactant in a 48.5:39:10:1.5:1.0:0.02 v/v ratio to obtain spray solutions containing the application rate. Compound requirements are based upon a 12 mL application volume at a rate of 187 liters per hectare (L/ha). Formulated compounds were applied to the plant material with an overhead Mandel track sprayer equipped with […] nozzles calibrated to deliver 187 L/ha over an application area of 0.64 square meters at a spray height of 18 inches (43 cm) above the average plant canopy height. Control plants were sprayed in the same manner with the solvent blank. The treated plants and control plants were placed in a greenhouse as described above and watered by subirrigation to prevent wash-off of the test compounds. After 14 d, the condition of the test plants as compared with that of the nontreated and control plants was determined visually and scored on a scale of 0 to 100 percent where 0 corresponds to no injury and 100 corresponds to complete control. In the reporting of the results, Table A: Percent Growth Reduction Conversion Table was used.

[1] = ECHCG: barnyardgrass (Echinochloa crus-galli), 14 days after application, read-out: Visual Growth Reduction (%) 14 Days After Application, ECHCG
[2] = IPOHE: ivy-leaf morning glory (Ipomoea hederacea), 14 days after application, read-out: Visual Growth Reduction (%) 14 Days After Application, IPOHE
[3] = KCHSC: kochia (Bassia scoparia), 14 days after application, read-out: Visual Growth Reduction (%) 14 Days After Application, KCHSC
[4] = ORYSA: rice (Oryza sativa), 14 days after application, read-out: Visual Growth Reduction (%) 14 Days After Application, ORYSA
[5] = SETFA: giant foxtail (Setaria faberi), 14 days after application, read-out: Visual Growth Reduction (%) 14 Days After Application, SETFA
[6] = SORVU: grain sorghum (Sorghum vulgare), 14 days after application, read-out: Visual Growth Reduction (%) 14 Days After Application, SORVU
[7] = STEME: common chickweed (Stellaria media), 14 days after application, read-out: Visual Growth Reduction (%) 14 Days After Application, STEME
[8] = TRZAS: wheat, spring (Triticum aestivum), 14 days after application, read-out: Visual Growth Reduction (%) 14 Days After Application, TRZAS
[9] = blackgrass (Alopecurus myosuroides), 14 Days After Application, read-out: Visual Growth Reduction (%) ALOMY
[10] = canada thistle (Cirsium arvense), 14 Days After Application, read-out: Visual Growth Reduction (%) CIRAR
[11] = crabgrass (Digitaria sanguinalis), 14 Days After Application, read-out: Visual Growth Reduction (%) DIGSA
[12] = lambsquarters (Chenopodium album), 14 Days After Application, read-out: Visual Growth Reduction (%) CHEAL
[13] = redroot pigweed (Amaranthus retroflexus), 14 Days After Application, read-out: Visual Growth Reduction (%) AMARE
[14] = wild oat (Avena fatua), 14 Days After Application, read-out: Visual Growth Reduction (%) AVEFA
[15] = yellow nutsedge (Cyperus esculentus), 14 Days After Application, read-out: Visual Growth Reduction (%) CYPES
[16] = ALOMY: blackgrass (Alopecurus myosuroides), 14 days after application, read-out: Visual Growth Reduction (%) 14 Days After Application, ALOMY
[17] = AMARE: redroot pigweed (Amaranthus retroflexus), 14 days after application, read-out: Visual Growth Reduction (%) 14 Days After Application, AMARE
[18] = AVEFA: wild oat (Avena fatua), 14 days after application, read-out: Visual Growth Reduction (%) 14 Days After Application, AVEFA
[19] = CHEAL: lambsquarters (Chenopodium album), 14 days after application, read-out: Visual Growth Reduction (%) 14 Days After Application, CHEAL
[20] = CIRAR: canada thistle (Cirsium arvense), 14 days after application, read-out: Visual Growth Reduction (%) 14 Days After Application, CIRAR
[21] = CYPES: yellow nutsedge (Cyperus esculentus), 14 days after application, read-out: Visual Growth Reduction (%) 14 Days After Application, CYPES
[22] = DIGSA: crabgrass (Digitaria sanguinalis), 14 days after application, read-out: Visual Growth Reduction (%) 14 Days After Application, DIGSA

Structure (SMILES): COC(=O)c1nc(-c2ccc3ccsc3c2F)ccc1Cl [F260, Methyl 3-chloro-6-(7-fluorobenzo[b]thiophen-6-yl) picolinate]
- pest or weed control at 140 g/ha [1]: 0 to 29%
- pest or weed control at 140 g/ha [2]: 0 to 29%
- pest or weed control at 140 g/ha [3]: 0 to 29%
- pest or weed control at 140 g/ha [4]: 0 to 29%
- pest or weed control at 140 g/ha [5]: 0 to 29%
- pest or weed control at 140 g/ha [6]: 0 to 29%
- pest or weed control at 140 g/ha [7]: 0 to 29%
- pest or weed control at 140 g/ha [8]: 0 to 29%
- pest or weed control at 140 g/ha [9]: 0 to 29%
- pest or weed control at 140 g/ha [10]: 0 to 29%
- pest or weed control at 140 g/ha [11]: 0 to 29%
- pest or weed control at 140 g/ha [12]: 0 to 29%
- pest or weed control at 140 g/ha [13]: 0 to 29%
- pest or weed control at 140 g/ha [14]: 0 to 29%
- pest or weed control at 140 g/ha [15]: 0 to 29%

Structure (SMILES): COC(=O)c1nc(-c2c(F)cc(Cl)cc2Cl)ccc1Cl [F62, Methyl 3-chloro-6-(2,4-dichloro-6-fluorophenyl) picolinate]
- pest or weed control at 140 g/ha [16]: 0 to 29%
- pest or weed control at 140 g/ha [17]: 95 to 100%
- pest or weed control at 140 g/ha [18]: 0 to 29%
- pest or weed control at 140 g/ha [19]: 75 to 84%
- pest or weed control at 140 g/ha [20]: 75 to 84%
- pest or weed control at 140 g/ha [21]: 0 to 29%
- pest or weed control at 140 g/ha [22]: 75 to 84%
- pest or weed control at 140 g/ha [2]: 95 to 100%
- pest or weed control at 140 g/ha [3]: 60 to 74%
- pest or weed control at 140 g/ha [4]: 0 to 29%
- pest or weed control at 140 g/ha [5]: 75 to 84%
- pest or weed control at 140 g/ha [6]: 85 to 94%
- pest or weed control at 140 g/ha [7]: 0 to 29%

Structure (SMILES): COC(=O)c1nc(-c2cc(Br)c(C(F)(F)F)cc2Cl)c(Cl)cc1Cl [F257, Methyl 6-(5-bromo-2-chloro-4-(trifluoromethyl)phenyl)-3,5-dichloropicolinate]
- pest or weed control at 140 g/ha [1]: 0 to 29%
- pest or weed control at 140 g/ha [2]: 85 to 94%
- pest or weed control at 140 g/ha [3]: 0 to 29%
- pest or weed control at 140 g/ha [4]: 0 to 29%
- pest or weed control at 140 g/ha [5]: 0 to 29%
- pest or weed control at 140 g/ha [6]: 0 to 29%
- pest or weed control at 140 g/ha [7]: 0 to 29%
- pest or weed control at 140 g/ha [8]: 0 to 29%
- pest or weed control at 140 g/ha [9]: 0 to 29%
- pest or weed control at 140 g/ha [10]: 0 to 29%
- pest or weed control at 140 g/ha [11]: 0 to 29%
- pest or weed control at 140 g/ha [12]: 75 to 84%
- pest or weed control at 140 g/ha [13]: 0 to 29%
- pest or weed control at 140 g/ha [14]: 0 to 29%
- pest or weed control at 140 g/ha [15]: 0 to 29%

Structure (SMILES): COC(=O)c1nc(-c2ccc(OC(F)(F)F)cc2)c(F)cc1Cl [F185, Methyl 3-chloro-5-fluoro-6-(4-(trifluoromethoxy)phenyl)picolinate]
- pest or weed control at 140 g/ha [16]: 0 to 29%
- pest or weed control at 140 g/ha [17]: 0 to 29%
- pest or weed control at 140 g/ha [18]: 0 to 29%
- pest or weed control at 140 g/ha [19]: 45 to 59%
- pest or weed control at 140 g/ha [20]: 0 to 29%
- pest or weed control at 140 g/ha [21]: 0 to 29%
- pest or weed control at 140 g/ha [22]: 75 to 84%
- pest or weed control at 140 g/ha [1]: 0 to 29%
- pest or weed control at 140 g/ha [2]: 75 to 84%
- pest or weed control at 140 g/ha [3]: 0 to 29%
- pest or weed control at 140 g/ha [4]: 0 to 29%
- pest or weed control at 140 g/ha [5]: 30 to 44%
- pest or weed control at 140 g/ha [6]: 60 to 74%
- pest or weed control at 140 g/ha [7]: 0 to 29%
- pest or weed control at 140 g/ha [8]: 0 to 29%

Structure (SMILES): C#Cc1ccc(-c2ccc(C(F)(F)F)cc2Cl)nc1C(=O)OC [F31, Methyl 6-(2-chloro-4-(trifluoromethyl)phenyl)-3-ethynylpicolinate]
- pest or weed control at 140 g/ha [16]: 0 to 29%
- pest or weed control at 140 g/ha [17]: 45 to 59%
- pest or weed control at 140 g/ha [18]: 0 to 29%
- pest or weed control at 140 g/ha [19]: 0 to 29%
- pest or weed control at 140 g/ha [20]: 0 to 29%
- pest or weed control at 140 g/ha [21]: 0 to 29%
- pest or weed control at 140 g/ha [22]: 0 to 29%
- pest or weed control at 140 g/ha [1]: 0 to 29%
- pest or weed control at 140 g/ha [2]: 60 to 74%
- pest or weed control at 140 g/ha [3]: 0 to 29%
- pest or weed control at 140 g/ha [4]: 0 to 29%
- pest or weed control at 140 g/ha [5]: 0 to 29%
- pest or weed control at 140 g/ha [6]: 45 to 59%
- pest or weed control at 140 g/ha [7]: 0 to 29%
- pest or weed control at 140 g/ha [8]: 0 to 29%
